Measured values from patent publication US20250073209A1, “COVALENT TARGETING OF RhoA FOR CANCER THERAPY” (The University of Hong Kong, priority 2023, published 2025).

Tests used:
FLAG-RhoA = target: T1, FLAG-RhoA (Homo sapiens, UniProt P61586); assay: CL16-alkyne labeling of FLAG-RhoA in HCT116 cells (anti-FLAG IP, CuAAC, in-gel fluorescence); format: cell-based; conditions: after immunoprecipitation and CuAAC
T1 construct: expressed in transfected cells; host or cells: HCT116
Protocol: HCT116 cells transiently expressing FLAG-RhoA were pre-treated with solvent vehicle or CL16 for 2 h, followed by the incubation with CL16-alkyne in complete medium for another 2 h. The cells were then lysed and subjected to immunoprecipitation by anti-FLAG beads. The enriched proteins were reacted with rhodamine azide through copper-catalyzed azide-alkyne cycloaddition (CuAAC), boiled with sampling buffer and separated by SDS-PAGE. The protein bands were then visualized by their in-gel fluorescence or blotted for RhoA. […] HCT116 cells were pre-treated with solvent vehicle or CL16 for 2 h, followed by the incubation with CL16-alkyne in complete medium for another 2 h. The cells were then lysed, reacted with rhodamine azide through CuAAC, boiled with sampling buffer, separated by SDS-PAGE and imaged. […]
To identify protein target and any off-targets of CL16 in CRCs, a molecular probe of CL16, CL16-alkyne (FIG. 6A), was synthesized. […] The protein bands were then visualized by their in-gel fluorescence or blotted for RhoA. […] The probe-labeled proteins were installed with rhodamine through CuAAC, and visualized by their in-gel fluorescence after SDS-PAGE. A protein band with strong fluorescence was found at −22 kDa in the sample incubated with CL16-alkyne only, in line with the molecular weight of RhoA (FIG. 6C).

[1] = reported studies; cited from earlier work
Cdc42 = Cdc42 (Homo sapiens, UniProt P60953); assay: Cdc42-GTP PAK-PBD pull-down in HT29 cells; format: cell-based; set-up: endogenous in cells; host or cells: HT29; conditions: HT29, 30 μM (working concentration for RhoA inhibition)
Description: The procedure is similar to that for RhoA-GTP assay, except that Rac1-GTP and Cdc42-GTP in CRC cells were first enriched by Rac1 Pull-Down Activation Assay Biochem Kit (Cytoskeleton #BK035) instead of using the RhoA kit. The enriched Rac1-GTP and Cdc42-GTP were then immunoblotted by Rac1/2/3 antibody (CST #2465) and Cdc42 antibody (CST #2462) respectively.
GTP loading onto RhoA is critical for the protein activation and mediating downstream signals. In view of the inhibitions of GDP-to-GTP exchange of RhoA by CL16 in vitro as discussed above, effects of CL16 on RhoA biology in colorectal cancer cells were examined. In the serum starvation-re-stimulation experiment, HCT116 cells were grown in serum-free medium with CL16, Rhosin or solvent control for 24 h, followed by stimulation with 10% FBS for 10 min. The cells were then lysed and the RhoA activity was assayed by the level of RhoA-GTP, which is the active form of RhoA. […] HT29 cells were incubated with solvent vehicle, CL16 or Rhosin in complete medium for 24 h. The cells were then washed, lysed and subjected to rhotekin pull-down for blotting RhoA-GTP, or PAK-PBD pull-down for blotting Rac1-GTP and Cdc42-GTP. Confocal fluorescence images from HCT116 and HT29 cells expressing FRET RhoA-biosensor in the serum starvation-restimulation experiment were taken.

T1 sequence (P61586 whole entry): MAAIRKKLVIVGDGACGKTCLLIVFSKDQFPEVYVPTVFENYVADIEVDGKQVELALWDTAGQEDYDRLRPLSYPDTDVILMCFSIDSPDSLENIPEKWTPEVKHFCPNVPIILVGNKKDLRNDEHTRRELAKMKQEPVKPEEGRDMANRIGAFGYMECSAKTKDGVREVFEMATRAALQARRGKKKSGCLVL
Cdc42, sequence (P60953 whole entry): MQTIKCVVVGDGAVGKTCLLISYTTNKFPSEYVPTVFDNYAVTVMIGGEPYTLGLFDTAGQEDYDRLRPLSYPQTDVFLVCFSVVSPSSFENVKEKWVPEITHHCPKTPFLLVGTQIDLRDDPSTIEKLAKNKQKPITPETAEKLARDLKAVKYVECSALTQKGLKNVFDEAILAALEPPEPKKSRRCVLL

Which “probe labeling of FLAG-RhoA (in-gel fluorescence)” value (FLAG-RhoA) does the source give for `C#CCOc1cccc2oc(C3=NN(C(=O)CCl)C(c4ccco4)C3)cc12` (stereo not drawn) [CL16-alkyne] here?
The value was “strong fluorescence from FLAG-RhoA protein”.

Which “working concentration (anticancer efficacy)” value [1] does the source give for `N[C@H](Cc1c[nH]c2ccccc12)C(=O)N/N=C/c1ccc2nccnc2c1` [Rhosin, reference compound] here?
The value was ≥ 30 µM.

And the “Cdc42 activity (Cdc42-GTP)” value (Cdc42)?
The value was “inhibited Cdc42”.
